# In US8802665B2, “Pyrrolidine derivatives” (Hoffman-La Roche Inc., priority 2012, dated 2014):
# Target: human Cat S (Homo sapiens (Human), UniProt P25774)
# Assay: Cathepsin enzyme inhibition assay (fluorogenic peptide substrate cleavage)
# Format: biochemical
# Settings: human Cathepsin S 1 nM, substrate Z-Val-Val-Arg-AMC 20 μM, pH 6.5; read-out: Ic50 CatS: human
# Procedure: Cathepsin Enzyme Inhibition Assay
# Enzyme activity is measured by observing the increase in fluorescence intensity caused by cleavage of a peptide substrate containing a fluorophore whose emission is quenched in the intact peptide. • Assay buffer: 100 mM potassium phosphate pH 6.5, EDTA-Na 5 mM, Triton X-100 0.001%, DTT 5 mM. • Enzymes (all at 1 nM): human and mouse Cathepsin S, Cat K, Cat B, Cat L. • Substrate (20 μM): Z-Val-Val-Arg-AMC, except for Cat K which uses Z-Leu-Arg-AMC (both from Bachem). • Z=Benzyloxycarbonyl. • AMC=7-Amino-4-Methyl-Coumarin. • DTT=dithiothreitol. • Final volume: 100 μL. • Excitation 360 nm, Emission 465 nm.
# Enzyme is added to the substance dilutions in 96-well microtitre plates and the reaction is started with substrate. Fluorescence emission is measured over 20 minutes, during which time a linear increase is observed in the absence of inhibitor. IC50 are calculated by standard methods.
# Inhibition of human Cat S, mouse Cat S, human Cat K, human Cat B, human Cat L and mouse Cat L have been measured separately. The results obtained for human Cat S for representative compounds of the invention are expressed in the following table in μM.
# human Cat S, sequence (P25774 115-331): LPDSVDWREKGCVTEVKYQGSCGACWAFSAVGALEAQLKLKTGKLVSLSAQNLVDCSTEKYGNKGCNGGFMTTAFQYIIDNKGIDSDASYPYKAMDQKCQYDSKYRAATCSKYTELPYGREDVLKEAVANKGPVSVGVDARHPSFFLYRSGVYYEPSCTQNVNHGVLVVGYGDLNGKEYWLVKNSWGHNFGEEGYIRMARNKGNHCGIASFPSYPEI
row,IC50 [nM],Compound
1,0.8,"N#CC1(NC(=O)[C@@H]2C[C@@H](S(=O)(=O)c3ccccc3Cl)CN2C(=O)C2(N3CCOCC3)CC2)CC1 [Example 39, (2S,4R)-4-(2-Chlorophenylsulfonyl)-N-(1-cyanocyclopropyl)-1-(1-morpholino-cyclopropanecarbonyl)pyrrolidine-2-carboxamide]"
2,0.5,"N#CC1(NC(=O)[C@@H]2C[C@@H](S(=O)(=O)c3ccccc3Cl)CN2C(=O)C2(N3CCCCCC3)CC2)CC1 [Example 40, (2S,4R)-1-(1-(Azepan-1-yl)cyclopropanecarbonyl)-4-(2-chlorophenylsulfonyl)-N-(1-cyanocyclopropyl)pyrrolidine-2-carboxamide]"
3,0.9,"CC1CCCCN1C1(C(=O)N2C[C@H](S(=O)(=O)c3ccccc3Cl)C[C@H]2C(=O)NC2(C#N)CC2)CC1 (stereo partly drawn) [Example 41, (2S,4R)-4-(2-Chlorophenylsulfonyl)-N-(1-cyanocyclopropyl)-1-(1-(2-methylpiperidin-1-yl)cyclopropanecarbonyl)pyrrolidine-2-carboxamide]"
4,0.4,"N#CC1(NC(=O)[C@@H]2C[C@@H](S(=O)(=O)c3ccc(F)cc3Cl)CN2C(=O)C2(N3CCCCC3)CC2)CC1 [Example 42, (2S,4R)-4-(2-Chloro-4-fluorophenylsulfonyl)-N-(1-cyanocyclopropyl)-1-(1-(piperidin-1-yl)cyclopropanecarbonyl)pyrrolidine-2-carboxamide]"
5,0.3,"N#CC1(NC(=O)[C@@H]2C[C@@H](S(=O)(=O)c3cccc(Cl)c3)CN2C(=O)C2(N3CCCCC3)CC2)CC1 [Example 43, (2S,4R)-4-(3-Chlorophenylsulfonyl)-N-(1-cyanocyclopropyl)-1-(1-(piperidin-1-yl)cyclopropanecarbonyl)pyrrolidine-2-carboxamide]"
6,0.4,"Cc1ccc(S(=O)(=O)[C@@H]2C[C@@H](C(=O)NC3(C#N)CC3)N(C(=O)C3(N4CCCCC4)CC3)C2)cc1 [Example 44, (2S,4R)-N-(1-Cyanocyclopropyl)-1-(1-(piperidin-1-yl)cyclopropanecarbonyl)-4-tosylpyrrolidine-2-carboxamide]"
7,0.8,"N#CC1(NC(=O)[C@@H]2C[C@@H](S(=O)(=O)c3ccccc3OC(F)(F)F)CN2C(=O)C2(N3CCCCC3)CC2)CC1 [Example 45, (2S,4R)-N-(1-Cyanocyclopropyl)-1-(1-(piperidin-1-yl)cyclopropanecarbonyl)-4-(2-(trifluoromethoxy)phenylsulfonyl)pyrrolidine-2-carboxamide]"
8,0.4,"N#CC1(NC(=O)[C@@H]2C[C@@H](S(=O)(=O)c3cccc(C(F)(F)F)c3)CN2C(=O)C2(N3CCCCC3)CC2)CC1 [Example 46, (2S,4R)-N-(1-Cyanocyclopropyl)-1-(1-(piperidin-1-yl)cyclopropanecarbonyl)-4-(3-(trifluoromethyl)phenylsulfonyl)pyrrolidine-2-carboxamide]"
9,0.8,"N#CC1(NC(=O)[C@@H]2C[C@@H](S(=O)(=O)c3ccc(Cl)cc3)CN2C(=O)C2(N3CCCCC3)CC2)CC1 [Example 47, (2S,4R)-4-(4-Chlorophenylsulfonyl)-N-(1-cyanocyclopropyl)-1-(1-(piperidin-1-yl)cyclopropanecarbonyl)pyrrolidine-2-carboxamide]"
10,2.3,"CC1(C)CCCN(C2(C(=O)N3C[C@H](S(=O)(=O)c4ccccc4Cl)C[C@H]3C(=O)NC3(C#N)CC3)CC2)C1 [Example 48, (2S,4R)-4-(2-Chlorophenylsulfonyl)-N-(1-cyanocyclopropyl)-1-(1-(3,3-dimethylpiperidin-1-yl)cyclopropanecarbonyl)pyrrolidine-2-carboxamide]"

# The next lines start with the compound.
row,Compound,IC50 [nM]
1,"CC1CCCN(C2(C(=O)N3C[C@H](S(=O)(=O)c4ccccc4Cl)C[C@H]3C(=O)NC3(C#N)CC3)CC2)C1 (stereo partly drawn) [Example 26, (2S,4R)-4-(2-Chlorophenylsulfonyl)-N-(1-cyanocyclopropyl)-1-(1-(3-methylpiperidin-1-yl)cyclopropanecarbonyl)pyrrolidine-2-carboxamide]",0.4
2,"N#CC1(NC(=O)[C@@H]2C[C@@H](S(=O)(=O)c3ccccc3Cl)CN2C(=O)C2(N3CCSCC3)CC2)CC1 [Example 27, (2S,4R)-4-(2-Chlorophenylsulfonyl)-N-(1-cyanocyclopropyl)-1-(1-thiomorpholinocyclopropanecarbonyl)pyrrolidine-2-carboxamide]",0.3
3,"N#CC1(NC(=O)[C@@H]2C[C@@H](S(=O)(=O)c3ccccc3Cl)CN2C(=O)C2(N3CCCC3)CC2)CC1 [Example 28, (2S,4R)-4-(2-Chlorophenylsulfonyl)-N-(1-cyanocyclopropyl)-1-(1-(pyrrolidin-1-yl)cyclopropanecarbonyl)pyrrolidine-2-carboxamide]",1.2
4,"CC(C)(C)OC(=O)N1CCN(C2(C(=O)N3C[C@H](S(=O)(=O)c4ccccc4Cl)C[C@H]3C(=O)NC3(C#N)CC3)CC2)CC1 [Example 29, tert-Butyl 4-(1-((2S,4R)-4-(2-chlorophenylsulfonyl)-2-(1-cyanocyclopropylcarbamoyl)pyrrolidine-1-carbonyl)cyclopropyl)piperazine-1-carboxylate]",2.3
5,"N#CC1(NC(=O)[C@@H]2C[C@@H](S(=O)(=O)c3ccccc3Cl)CN2C(=O)C2(N3CCNCC3)CC2)CC1 [Example 30, (2S,4R)-4-(2-Chlorophenylsulfonyl)-N-(1-cyanocyclopropyl)-1-(1-(piperazin-1-yl)cyclopropanecarbonyl)pyrrolidine-2-carboxamide]",4.2
6,"CC(=O)N1CCN(C2(C(=O)N3C[C@H](S(=O)(=O)c4ccccc4Cl)C[C@H]3C(=O)NC3(C#N)CC3)CC2)CC1 [Example 31, (2S,4R)-1-(1-(4-Acetylpiperazin-1-yl)cyclopropanecarbonyl)-4-(2-chlorophenylsulfonyl)-N-(1-cyanocyclopropyl)pyrrolidine-2-carboxamide]",2.2
7,"CS(=O)(=O)N1CCN(C2(C(=O)N3C[C@H](S(=O)(=O)c4ccccc4Cl)C[C@H]3C(=O)NC3(C#N)CC3)CC2)CC1 [Example 32, (2S,4R)-4-(2-Chlorophenylsulfonyl)-N-(1-cyanocyclopropyl)-1-(1-(4-(methylsulfonyl)piperazin-1-yl)cyclopropanecarbonyl)pyrrolidine-2-carboxamide]",2.5
8,"COC(=O)N1CCN(C2(C(=O)N3C[C@H](S(=O)(=O)c4ccccc4Cl)C[C@H]3C(=O)NC3(C#N)CC3)CC2)CC1 [Example 33, Methyl 4-(1-((2S,4R)-4-(2-chlorophenylsulfonyl)-2-(1-cyanocyclopropylcarbamoyl)pyrrolidine-1-carbonyl)cyclopropyl)piperazine-1-carboxylate]",2.6
9,"N#CC1(NC(=O)[C@@H]2C[C@@H](S(=O)(=O)c3ccccc3Cl)CN2C(=O)C2(N3CCN(C=O)CC3)CC2)CC1 [Example 34, (2S,4R)-4-(2-Chlorophenylsulfonyl)-N-(1-cyanocyclopropyl)-1-(1-(4-formylpiperazin-1-yl)cyclopropanecarbonyl)pyrrolidine-2-carboxamide]",1.4
10,"N#CC1(NC(=O)[C@@H]2C[C@@H](S(=O)(=O)c3ccccc3Cl)CN2C(=O)C2(N3CCN(C(=O)C(F)(F)F)CC3)CC2)CC1 [Example 35, (2S,4R)-4-(2-Chlorophenylsulfonyl)-N-(1-cyanocyclopropyl)-1-(1-(4-(2,2,2-trifluoroacetyl)piperazin-1-yl)cyclopropanecarbonyl)pyrrolidine-2-carboxamide]",3.7
11,"CCN1CCN(C2(C(=O)N3C[C@H](S(=O)(=O)c4ccccc4Cl)C[C@H]3C(=O)NC3(C#N)CC3)CC2)CC1 [Example 36, (2S,4R)-4-(2-Chlorophenylsulfonyl)-N-(1-cyanocyclopropyl)-1-(1-(4-ethylpiperazin-1-yl)cyclopropanecarbonyl)pyrrolidine-2-carboxamide]",6.2
12,"N#CC1(NC(=O)[C@@H]2C[C@@H](S(=O)(=O)c3ccccc3Cl)CN2C(=O)C2(N3CCC(c4ccccc4)CC3)CC2)CC1 [Example 37, (2S,4R)-4-(2-chlorophenylsulfonyl)-N-(1-cyanocyclopropyl)-1-(1-(4-phenylpiperidin-1-yl)cyclopropanecarbonyl)pyrrolidine-2-carboxamide]",1.2
13,"CC1CCN(C2(C(=O)N3C[C@H](S(=O)(=O)c4ccccc4Cl)C[C@H]3C(=O)NC3(C#N)CC3)CC2)CC1 [Example 38, (2S,4R)-4-(2-chlorophenylsulfonyl)-N-(1-cyanocyclopropyl)-1-(1-(4-methylpiperidin-1-yl)cyclopropanecarbonyl)pyrrolidine-2-carboxamide]",0.5
